Among the data in ChEMBL document CHEMBL1138934, “Indenone derivatives: a novel template for peroxisome proliferator-activated receptor gamma (PPARgamma) agonists” (J Med Chem, 2006) are EC50 values, retold here.

The target in experiment [1] is T1, Peroxisome proliferator-activated receptor gamma (Homo sapiens, UniProt P37231).
T1 sequence (P37231 whole entry): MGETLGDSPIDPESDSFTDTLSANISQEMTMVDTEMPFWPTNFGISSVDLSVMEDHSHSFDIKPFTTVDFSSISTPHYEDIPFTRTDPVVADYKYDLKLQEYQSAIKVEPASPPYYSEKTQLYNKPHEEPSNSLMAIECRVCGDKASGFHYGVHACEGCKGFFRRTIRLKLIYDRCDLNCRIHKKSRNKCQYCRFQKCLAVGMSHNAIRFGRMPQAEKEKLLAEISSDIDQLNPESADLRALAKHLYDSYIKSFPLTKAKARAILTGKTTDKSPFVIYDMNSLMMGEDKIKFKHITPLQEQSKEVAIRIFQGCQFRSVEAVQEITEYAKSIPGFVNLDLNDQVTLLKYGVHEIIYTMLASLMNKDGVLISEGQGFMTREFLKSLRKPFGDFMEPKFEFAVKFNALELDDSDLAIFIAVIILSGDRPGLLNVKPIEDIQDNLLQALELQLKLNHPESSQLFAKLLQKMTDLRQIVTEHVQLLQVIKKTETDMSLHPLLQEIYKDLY
Description: Activity at human PPAR gamma transfected in NIH3T3 cells by luciferase activity assay

The target of experiment [2] is T2, Peroxisome proliferator-activated receptor alpha (Homo sapiens, UniProt Q07869).
T2 sequence (Q07869 whole entry): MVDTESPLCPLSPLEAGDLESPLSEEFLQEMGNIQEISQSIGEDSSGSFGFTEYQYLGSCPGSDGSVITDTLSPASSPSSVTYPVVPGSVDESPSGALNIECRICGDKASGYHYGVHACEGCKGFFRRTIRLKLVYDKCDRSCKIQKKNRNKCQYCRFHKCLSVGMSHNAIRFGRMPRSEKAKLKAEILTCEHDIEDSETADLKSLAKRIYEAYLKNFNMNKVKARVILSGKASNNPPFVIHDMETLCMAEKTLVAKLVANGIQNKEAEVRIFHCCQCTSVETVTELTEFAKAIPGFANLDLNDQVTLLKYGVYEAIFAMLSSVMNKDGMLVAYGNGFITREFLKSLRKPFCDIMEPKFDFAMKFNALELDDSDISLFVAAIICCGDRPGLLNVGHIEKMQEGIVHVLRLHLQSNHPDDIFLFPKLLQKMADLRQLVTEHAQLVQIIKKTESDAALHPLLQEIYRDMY
In words: Activity at human PPAR alpha.

As a reminder, the EC50 is the concentration giving half of the maximal effect. A high value points to a less potent agent. Compound `CCOC(=O)C1=C(c2ccccc2)c2ccc(OCCCc3ccccc3)cc2C1=O` displayed an EC50 in experiment [1] of 50 nM.
Take `CCOC(=O)C1=C(C23CC4CC(CC(C4)C2)C3)c2ccc(OC)cc2C1=O`: a half-maximal response in experiment [1] (EC50) required 2500 nM. Against the preceding compound, the EC50 is about 50-fold higher.
`CCOC(=O)C1=C(c2ccccc2)c2ccc(OC)cc2C1=O`: the half-maximal effective concentration (EC50) in experiment [2] is greater than 100000 nM; in experiment [1], 300 nM.
Compound `CCOC(=O)C1=C(c2ccccc2)c2ccc(OC)cc2C1` showed an EC50 in experiment [1] greater than 10000 nM.
Consider `CCOC(=O)CC1=C(c2ccccc2)c2ccc(OC)cc2C1=O`, for which the half-maximal effective concentration (EC50) in experiment [1] is 300 nM.
Consider `CCOC(=O)C1=C(c2ccccc2)c2ccc(OCc3ccccc3)cc2C1=O`, for which, in experiment [1], a half-maximal effect (EC50) was put at 220 nM.
`CCOC(=O)C1=C(c2ccccc2)c2ccc(OC)cc2/C1=N/O` yielded a concentration for a half-maximal effect (EC50) in experiment [1] greater than 10000 nM.
In experiment [1], `CCOC(=O)C1=C(c2ccccc2)c2ccc(OCCc3ccccc3)cc2C1=O` registered a concentration giving a half-maximal response (EC50) of 210 nM.
As to `CCOC(=O)C1=C(c2ccoc2)c2ccc(OC)cc2C1=O`, the EC50 in experiment [1] was 1000 nM. This EC50 lies about 4.8-fold higher than the previous one.
